Article PMC6973020, “Quinoline‐Conjugated Ruthenacarboranes: Toward Hybrid Drugs with a Dual Mode of Action” (Chemmedchem, 2019)

How the values were obtained:
[1] = test system: LN229 human glioblastoma; test: MTT cell viability assay, LN229; type: cell-based; settings: 72 h
Text: (§1) Thus, care must be taken when comparing their biological activities with those of our previous studies, even with the same cell line, because the covalent vs. non‐covalent combination of drugs might imply different mechanisms of action in the cell.44 Here, we studied the in vitro activity of ruthenacarborane 3, i. e. free acid, and its 8‐hydroxyquinolyl (4) and 4‐{(7‐chloroquinolin‐4‐yl)oxy}butanol‐1‐yl (5) esters, against a panel of cancer cell lines (B16 mouse melanoma, A375 human skin melanoma, MCF‐7 human breast adenocarcinoma, LN229 human glioblastoma, U251 human glioma). Human fibroblast cell line MRC‐5, murine microglial cell line BV‐2 as well as peritoneal exudate cells (Mph), were chosen as models for non‐malignant cells. […] On the other side, we wanted to assess the reproducibility of the viability data, under either controlled (with BSA) or uncontrolled (without BSA) conditions, in two sets of independent assays. […] Cells were exposed to 3–5 for 72 h, after which cell viability was determined via 3‐(4,5‐dimethylthiazol‐2‐yl)‐2,5‐diphenyltetrazolium bromide (MTT) and crystal violet (CV) assays, in parallel (Table 2). Cisplatin was also tested as reference.
(§2) Preparation of drug solutions. […] Stock solution of cisplatin was prepared in DMF (10 mM) immediately before use. A stock solution of BSA in PBS was prepared at 1.28 mM concentration, and stored at 4 °C in the dark. […] Alternatively, 3 or 4 (DMSO stock solution) were added to the BSA solution in PBS, always with a 10 : 1 molar ratio of BSA to ruthenacarborane. The BSA−ruthenacarborane solutions were incubated 0.5–1 h at room temperature, then diluted with cell culture medium to the desired final concentrations. Final concentrations of 3 and 4 were the same as for the BSA‐free formulation. Final DMSO was 0.02–0.5 vol %.
(§3) Colorimetric assays for cellular viability. […] For counting the number of attached (viable) cells, cells were fixed with 4 % (w/v) paraformaldehyde for 10 min at room temperature, and subsequently stained for 15 min with […] crystal violet (CV) solution. Cells were then washed with tap water, dried in air, and the CV dye was dissolved in 33 % (w/v) acetic acid solution. For the detection of mitochondrial respiration, cells were cultivated in MTT staining solution (0.5 mg mL^−1) for approximately 1 h. The dye was then discarded, and the formed formazan (purple) was dissolved in DMSO. The absorbance was measured with an automated microplate reader at λmax 540 nm, with the reference λmax 670 nm. Untreated cells or cells treated only with BSA (control) were also measured, as reference for BSA‐free and BSA‐containing drug formulations, respectively. […] Cell viability is expressed as percentage (%) relative to control (untreated cultures).58 Experiments were run in three independent replicates. […]

[2] = test system: MCF‐7 cells; test: CFSE staining, flow cytometry, MCF‐7; type: cell-based, human; settings: MCF‐7, 20 μM, 72 h
Description: Flow cytometry. For gaining better insights into the mechanisms of action of the ruthenium complexes, MCF‐7 and LN229 cells incubated with an IC50 dose of 3 or 4, were analyzed via flow cytometry. Several staining protocols were carried out in parallel, in independent experiments: i) AnnV/PI for the detection of apoptotic cell death, ii) AO for the detection of acidic vacuoles, iii) ApoStat for checking caspase activation, iv) CFSE for detecting interference with cellular proliferation, and v) DAPI for the detection of morphological signs of apoptosis. Untreated cells or cells treated only with BSA (control) were also measured, as reference for BSA‐free and BSA‐containing drug formulations, respectively. […] Channels FL1 (green emission), FL2 (orange emission) and/or FL3 (dark red emission) were used for fluorescence detection, according to the specific staining agent. Sideward Scatter (SSC) for MCF‐7 cells treated with 4 or BSA−4 was also analyzed, with respect to the control, for detection of shifts of cell granularity. […]
Staining Protocols for Flow Cytometric Analysis. […] Finally, cells were washed in PBS, resuspended in PBS (or AnnV‐binding buffer for AnnV/PI), and analysed. […] Cells were then washed, trypsinised, dissolved in PBS and analysed by CyFlow® Space Partec using the PartecFloMax® software (Partec GmbH, Münster, Germany). […]

[3] = test system: Human fibroblast cell line MRC‐5; test: Crystal violet (CV) cell viability assay, MRC‐5; type: cell-based; settings: 72 h
Text: as §1
(§4) Preparation of drug solutions. […] Stock solution of cisplatin was prepared in DMF (10 mM) immediately before use. A stock solution of BSA in PBS was prepared at 1.28 mM concentration, and stored at 4 °C in the dark. […] Alternatively, 3 or 4 (DMSO stock solution) were added to the BSA solution in PBS, always with a 10 : 1 molar ratio of BSA to ruthenacarborane. […]
(§5) Colorimetric assays for cellular viability. […] The absorbance was measured with an automated microplate reader at λmax 540 nm, with the reference λmax 670 nm. Untreated cells or cells treated only with BSA (control) were also measured, as reference for BSA‐free and BSA‐containing drug formulations, respectively. […] Cell viability is expressed as percentage (%) relative to control (untreated cultures).58 Experiments were run in three independent replicates. […]

[4] = test system: A375 human skin melanoma; test: MTT cell viability assay, A375; type: cell-based; settings: 72 h
Text: as §1, §2, §3

[5] = test system: Human fibroblast cell line MRC‐5; test: MTT cell viability assay, MRC‐5; type: cell-based; settings: 72 h
Text: as §1, §4, §5

closo ‐[3‐(η^6‐p‐Cymene)‐1‐(quinolin‐8‐yl‐acetate)‐3,1,2‐RuC2B9H10] [Compound 4]
IC50 [1]: 42.4 ± 3.9 µM
cellular proliferation (CFSE staining) [2]: inhibition of cellular proliferation
IC50 [3]: 4.9 ± 0.1 µM
IC50 [4]: 11.9 ± 1.2 µM
IC50 [5]: 3.9 ± 0.1 µM

closo‐ [Compound 3, closo‐ [3‐(η^6‐p‐Cymene)‐1‐(CH2COOH)‐3,1,2‐RuC2B9H10]]
IC50 [1]: 80.1 ± 4 µM
cellular proliferation (CFSE staining) [2]: inhibition of cellular proliferation
IC50 [3]: 58.5 ± 0.3 µM
IC50 [4]: 9.7 ± 1.1 µM
IC50 [5]: 44.2 ± 1.6 µM
